According to US10077261B2, “Imidazolin-5-one derivative useful as FASN inhibitors for the treatment of cancer” (Janssen Pharmaceutica NV, priority 2012, dated 2018):

Target: T1, hFASN enzyme (full length) (Homo sapiens, UniProt P49327)
T1 construct: 10 μL hFASN enzyme (full length, 300 ng, purified in house); made in house
Assay: Fatty Acid Synthase (FASN) inhibition scintillation proximity assay
Format: biochemical
Details: for inhibition at 10 µM: read-out: Human FASN % inhibition @ 10 μM, 10 μM test compound; for IC50: read-out: Human FASN pIC50 (converted)
How it was run: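 Compounds at 0.01–30 μM were mixed with 300 ng purified full-length enzyme in 100 mM KH2PO4 pH 7.5, 1 mM DTT. Substrates ³H-acetyl-CoA and malonyl-CoA were then converted, and bead addition stopped the reaction. Signal was normalised to low and high plate controls and fitted by 4-parameter nonlinear regression.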

T1 sequence (P49327 whole entry): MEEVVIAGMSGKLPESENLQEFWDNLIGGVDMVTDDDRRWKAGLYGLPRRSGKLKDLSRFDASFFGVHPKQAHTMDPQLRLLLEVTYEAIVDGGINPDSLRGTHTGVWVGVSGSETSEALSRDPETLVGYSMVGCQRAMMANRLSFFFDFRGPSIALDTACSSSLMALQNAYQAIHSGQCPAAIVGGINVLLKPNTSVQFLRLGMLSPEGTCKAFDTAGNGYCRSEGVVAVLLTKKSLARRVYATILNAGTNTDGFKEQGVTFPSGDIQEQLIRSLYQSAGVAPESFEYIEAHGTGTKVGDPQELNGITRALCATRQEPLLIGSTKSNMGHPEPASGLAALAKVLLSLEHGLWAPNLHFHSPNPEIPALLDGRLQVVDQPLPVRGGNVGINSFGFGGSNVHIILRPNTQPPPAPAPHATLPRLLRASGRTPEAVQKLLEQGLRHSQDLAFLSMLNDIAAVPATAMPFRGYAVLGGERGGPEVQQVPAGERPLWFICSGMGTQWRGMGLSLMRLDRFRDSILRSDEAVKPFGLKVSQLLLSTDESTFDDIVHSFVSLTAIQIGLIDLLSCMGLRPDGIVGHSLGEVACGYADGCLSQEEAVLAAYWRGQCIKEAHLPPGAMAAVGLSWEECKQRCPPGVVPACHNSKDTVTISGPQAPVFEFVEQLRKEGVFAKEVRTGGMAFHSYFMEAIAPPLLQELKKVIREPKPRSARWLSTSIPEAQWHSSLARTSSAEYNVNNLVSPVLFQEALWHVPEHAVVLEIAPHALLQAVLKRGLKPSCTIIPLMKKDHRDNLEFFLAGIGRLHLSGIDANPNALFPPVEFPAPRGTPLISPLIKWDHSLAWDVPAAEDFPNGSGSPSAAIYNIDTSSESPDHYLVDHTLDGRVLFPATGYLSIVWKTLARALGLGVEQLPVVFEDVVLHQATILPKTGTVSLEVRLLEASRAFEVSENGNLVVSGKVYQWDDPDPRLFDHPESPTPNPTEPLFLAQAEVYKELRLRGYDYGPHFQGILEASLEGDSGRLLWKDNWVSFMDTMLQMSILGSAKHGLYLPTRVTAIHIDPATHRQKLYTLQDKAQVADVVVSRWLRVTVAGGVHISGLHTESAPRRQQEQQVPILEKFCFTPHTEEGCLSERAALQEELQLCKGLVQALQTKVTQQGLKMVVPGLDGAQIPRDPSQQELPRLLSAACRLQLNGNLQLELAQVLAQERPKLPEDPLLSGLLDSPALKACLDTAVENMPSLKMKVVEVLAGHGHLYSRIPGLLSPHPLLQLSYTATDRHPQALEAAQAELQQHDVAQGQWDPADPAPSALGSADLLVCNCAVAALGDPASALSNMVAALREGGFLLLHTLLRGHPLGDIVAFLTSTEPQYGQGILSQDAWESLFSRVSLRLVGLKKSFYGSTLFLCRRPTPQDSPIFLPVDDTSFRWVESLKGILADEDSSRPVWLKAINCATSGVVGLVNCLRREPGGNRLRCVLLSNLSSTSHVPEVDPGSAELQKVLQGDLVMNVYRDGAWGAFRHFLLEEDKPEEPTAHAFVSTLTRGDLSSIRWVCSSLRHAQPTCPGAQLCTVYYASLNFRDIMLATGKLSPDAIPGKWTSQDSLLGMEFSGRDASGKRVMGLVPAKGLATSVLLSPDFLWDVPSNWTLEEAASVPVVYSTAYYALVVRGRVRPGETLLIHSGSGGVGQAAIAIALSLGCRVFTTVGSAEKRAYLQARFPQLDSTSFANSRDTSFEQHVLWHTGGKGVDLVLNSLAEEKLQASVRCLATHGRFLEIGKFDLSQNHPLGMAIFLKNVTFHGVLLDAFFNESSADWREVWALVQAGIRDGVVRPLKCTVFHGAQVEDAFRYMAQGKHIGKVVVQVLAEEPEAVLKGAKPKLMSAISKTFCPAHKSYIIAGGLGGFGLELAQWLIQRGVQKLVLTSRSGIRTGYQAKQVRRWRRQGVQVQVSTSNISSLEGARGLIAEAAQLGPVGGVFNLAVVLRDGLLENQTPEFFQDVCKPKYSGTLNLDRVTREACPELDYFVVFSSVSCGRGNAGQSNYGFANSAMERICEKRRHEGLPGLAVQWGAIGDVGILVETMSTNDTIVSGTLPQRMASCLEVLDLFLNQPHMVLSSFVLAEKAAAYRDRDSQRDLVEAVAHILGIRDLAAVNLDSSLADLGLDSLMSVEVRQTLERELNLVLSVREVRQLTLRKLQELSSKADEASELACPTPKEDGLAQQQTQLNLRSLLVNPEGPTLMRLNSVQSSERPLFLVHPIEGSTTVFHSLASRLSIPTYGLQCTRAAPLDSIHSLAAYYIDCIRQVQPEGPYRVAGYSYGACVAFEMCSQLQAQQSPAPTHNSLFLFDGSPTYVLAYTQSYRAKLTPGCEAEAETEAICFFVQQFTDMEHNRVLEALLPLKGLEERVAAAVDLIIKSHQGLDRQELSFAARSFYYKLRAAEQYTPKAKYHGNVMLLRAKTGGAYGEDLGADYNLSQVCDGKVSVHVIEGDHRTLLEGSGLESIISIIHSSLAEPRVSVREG

| SMILES | inhibition at 10 µM [%] | IC50 [µM] | Human FASN % inhibition @ 10 μM (10 μM test compound, 10 µM) [%] | Human FASN pIC50 (hFASN enzyme, full length, "~" means standard error of the pIC50 is larger than 0.5) |
| --- | --- | --- | --- | --- |
| O=C(C1CC1)N1CCC[C@@H](CN2C(=O)C3(CC3)N=C2c2ccc(-c3ccc(-c4cccc(Cl)c4)cc3)cc2)C1 [compound 820, (R)-5-(3″-chloro-[1,1′:4′,1″-terphenyl]-4-yl)-6-((1-(cyclopropanecarbonyl)piperidin-3-yl)methyl)-4,6-diazaspiro[2.4]hept-4-en-7-one] | 33 | > 10 |  |  |
| Cc1ccc(-c2ccc(-c3ccc(C4=NC5(CC5)C(=O)N4C[C@@H]4CCCN(C(=O)C5CC5)C4)cc3)cc2)cc1 [compound 821, (R)-6-((1-(cyclopropanecarbonyl)piperidin-3-yl)methyl)-5-(4″-methyl-[1,1′:4′,1″- terphenyl]-4-yl)-4,6-diazaspiro[2.4]hept-4-en-7-one] | 7 | > 10 |  |  |
| Cc1cc(-c2cnc3c(c2)OCCN3C)ccc1C1=NC2(CCCC2)C(=O)N1C[C@@H]1CCN(C(=O)C2CC2)C1 [compound 822, (R)-3-((1-(cyclopropanecarbonyl)pyrrolidin-3-yl)methyl)-2-(2-methyl-4-(4-methyl-3,4-dihydro-2H-pyrido[3,2-b][1,4]oxazin-7-yl)phenyl)-1,3-diazaspiro[4.4]non-1-en-4-one] | 25 | > 10 |  |  |
| Cn1cc(-c2ccc(-c3ccc(C4=NC5(CC5)C(=O)N4C[C@@H]4CCCN(C(=O)C5CC5)C4)cc3)cc2)cn1 [compound 823, (R)-6-((1-(cyclopropanecarbonyl)piperidin-3-yl)methyl)-5-(4′-(1-methyl-1H-pyrazol-4-yl)-[1,1′-biphenyl]-4-yl)-4,6-diazaspiro[2.4]hept-4-en-7-one] | 31 | > 10 |  |  |
| O=C(C1CC1)N1CC[C@@H](CN2C(=O)C3(CCCC3)N=C2c2ccc(-c3ccnc(N4CCNCC4)c3)cc2)C1 [compound 828, (R)-3-((1-(cyclopropanecarbonyl)pyrrolidin-3-yl)methyl)-2-(4-(2-(piperazin-1-yl)pyridin-4-yl)phenyl)-1,3-diazaspiro[4.4]non-1-en-4-one] | 4 | > 10 |  |  |
| CN1CCN(c2cc(-c3ccc(C4=NC5(CCCC5)C(=O)N4C[C@@H]4CCN(C(=O)C5CC5)C4)cc3)ccn2)CC1 [compound 829, (R)-3-((1-(cyclopropanecarbonyl)pyrrolidin-3-yl)methyl)-2-(4-(2-(4-methylpiperazin-1-yl)pyridin-4-yl)phenyl)-1,3-diazaspiro[4.4]non-1-en-4-one] | 7 | > 10 |  |  |
| Cc1cc(-c2cncc(Cl)c2)ccc1C1=NC2(CCCC2)C(=O)N1C[C@@H]1CCN(C(=O)C2CC2)C1 [compound 855, (R)-2-(4-(5-chloropyridin-3-yl)-2-methylphenyl)-3-((1-(cyclopropanecarbonyl)pyrrolidin-3-yl)methyl)-1,3-diazaspiro[4.4]non-1-rn-4-one] | 52 | > 10 |  |  |
| O=C(C1CC1)N1CCC(CN2C(=O)C3(CC3)N=C2c2ccc(-c3ccc(C(F)(F)F)cc3)cc2)CC1 [compound 859, 6-((1-(cyclopropanecarbonyl)piperidin-4-yl)methyl)-5-(4′-(trifluoromethyl)-[1,1′-biphenyl]-4-yl)-4,6-diazaspiro[2.4]hept-4-en-7-one] |  |  | 11 | <5 |
| Nc1cncc(-c2ccc(C3=NC4(CC4)C(=O)N3C[C@@H]3CCN(C(=O)C4CC4)C3)cc2)c1 [compound 867, (R)-5-(4-(5-aminopyridi9n-3-yl)phenyl)-6-((1-(cyclopropanecarbonyl)pyrrolidin-3-yl)methyl)-4,6-diazaspiro[2.4]hept-4-en-7-one] | 44 | > 10 |  |  |
| Cc1cc2cc(-c3ccc(C4=NC5(CC5)C(=O)N4CC4CN(C(=O)C5CC5)C4)c(F)c3)ccc2[nH]1 [compound 869, 6-((1-(cyclopropanecarbonyl)azetidin-3-yl)methyl)-5-(2-fluoro-4-(2-methyl-1H-indol-5-yl)phenyl)-4,6-diazaspiro[2.4]hept-4-en-7-one] |  | 0.0468 |  |  |
| Cn1ccc2cc(-c3ccc(C4=NC5(CC5)C(=O)N4CC4CN(C(=O)C5CC5)C4)c(F)c3)ccc21 [compound 870, 6-((1-(cyclopropanecarbonyl)azetidin-3-yl)methyl)-5-(2-fluoro-4-(1-methy7l-1H-indol-5-yl)phenyl)-4,6-diazaspiro[2.4]hept-4-en-7-one] |  | 0.0269 |  |  |
| CC(=O)c1ccc(-c2ccc(C3=NC4(CCCC4)C(=O)N3C[C@@H]3CCN(C(=O)C4CC4)C3)c(F)c2)cc1 [compound 886, (R)-2-(4′-acetyl-3-fluoro-[1,1′-biphenyl]-4-yl)-3-((1-(cyclopropanecarbonyl)pyrrolidin-3-yl)methyl)-1,3-diazaspiro[4.4]non-1-en-4-one] | 79 | 1.91 |  |  |
| O=C(C1CC1)N1CC(CN2C(=O)C3(CC3)N=C2c2ccc(-c3ccc(Br)cn3)cc2)C1 [compound 887, 5-(4-(5-bromopyridin-2-yl)phenyl)-6-((1-(cyclopropanecarbonyl)azetidin-3-yl)methyl)-4,6-diazaspiro[2.4]hept-4-en-7-one] | 73 | 4.07 |  |  |
| CS(=O)(=O)N1CC(CN2C(=O)C3(CCOCC3)N=C2c2ccc(-c3ccc4occc4c3)cc2)C1 [compound 888, 2-(4-(benzofuran-5-yl)phenyl)-3-((1-(methylsulfonyl)azetidin-3-yl)methyl)-8-oxa-1,3-diazaspiro[4.5]dec-1-en-4-one] | 1 | > 10 |  |  |
| COC(=O)N1CC[C@@H](CN2C(=O)C3(CCOCC3)N=C2c2ccc(-c3ccc4occc4c3)cc2)C1 [compound 889, (S)-methyl 3-((2-(4-(benzofuran-5-yl)phenyl)-4-oxo-8-oxa-1,3-diazaspiro[4.5]dec-1-en-3-yl)methyl)pyrrolidin-1-carboxylate] | 44 | > 10 |  |  |
| Cn1ncc2cc(-c3ccc(C4=NC5(CCOCC5)C(=O)N4C[C@@H]4CCN(C(=O)C(F)(F)F)C4)cc3)ccc21 [compound 890, (R)-2-(4-(1-methyl-1H-indazol-5-yl)phenyl)-3-((1-(2,2,2-trifluoroacetyl)pyrrolidin-3-yl)methyl)-8-oxa-1,3-diazaspiro[4.5]dec-1-en-4-one] | 37 | > 10 |  |  |
| Cn1ncc2cc(-c3ccc(C4=NC5(CCOC5)C(=O)N4C[C@@H]4CCN(C(=O)c5nccs5)C4)cc3)ccc21 (stereo partly drawn) [compound 892, 2-(4-(1-methyl-1H-indazol-5-yl)phenyl)-3-(((R)-1-(thiazole-2-carbonyl)pyrrolidin-3-yl)methyl)-7-oxa-1,3-diazxaspiro[4.4]non-1-en-4-one] | -29 | > 10 |  |  |
| Cn1cc(-c2ccc(-c3ccc(C4=NC5(CCOCC5)C(=O)N4CC4CN(C(=O)C(F)(F)F)C4)cc3)cc2)cn1 [compound 893, 2-(4′-(1-methyl-1H-pyrazol-4-yl)-[1,1′-biphenyl]-4-yl)-3-((1-(2,2,2-trifluoroacetyl)azetidin-3-yl)methyl)-8-oxa-1,3-diazaspiro[4.5]dec-1-en-4-one] | -12 | > 10 |  |  |
| COC(=O)N1CC[C@@H](CN2C(=O)C3(CCOC3)N=C2c2ccc(-c3ccc(-c4cnn(C)c4)cc3)cc2)C1 (stereo partly drawn) [compound 894, (3S)-methyl 3-((2-(4′-(1-methyl-1H-pyrazol-4-yl)-[1,1′-biphenyl]-4-yl)-4-oxo-7-oxa-1,3-diazaspiro[4.4]non-1-en-3-yl)methyl)pyrrolidin-1-carboxylate] | 20 | > 10 |  |  |
| O=C(N1CC(CN2C(=O)C3(CCOC3)N=C2c2ccc(-c3ccc4cccnc4c3)cc2)C1)C(F)(F)F (stereo not drawn) [compound 895, 2-(4-(quinolin-7-yl)phenyl)-3-((1-(2,2,2-trifluoroacetyl)azetidin-3-yl)methyl)-7-oxa-1,3-diazaspiro[4.4]non-1-en-4-one] | 6 | > 10 |  |  |
| Cn1cc(-c2ccc(-c3ccc(C4=NC5(CCOC5)C(=O)N4CC4CN(C(=O)c5nccs5)C4)cc3)cc2)cn1 (stereo not drawn) [compound 901, 2-(4′-(1-methyl-1H-pyrazol-4-yl)-[1,1′-biphenyl]-4-yl)-3-((1-(thiazol-2-carbonyl)azetidin-3-yl)methyl)-7-oxa-1,3-diazaspiro[4.4]non-1-en-4-one] | 2 | > 10 |  |  |
| Cn1ncc2cc(-c3ccc(C4=NC5(CCOCC5)C(=O)N4CC4CN(S(C)(=O)=O)C4)cc3)ccc21 [compound 902, 2-(4-(1-methyl-1H-indazol-5-yl)phenyl)-3-((1-(methylsulfonyl)azetidin-3-yl)methyl)-8-oxa-1,3-diazaspiro[4.5]dec-1-en-4-one] | 6 | > 10 |  |  |
| COC(=O)N1CC(CN2C(=O)C3(CCOC3)N=C2c2ccc(-c3ccc4cccnc4c3)cc2)C1 (stereo not drawn) [compound 903, methyl 3-((4-oxo-2-(4-(quinolin-7-yl)phenyl)-7-oxa-1,3-diazaspiro[4.4]non-1-en-3-yl)methyl)azetidine-1-carboxylate] | 15 | > 10 |  |  |
| COC(=O)N1CC(CN2C(=O)C3(CCOC3)N=C2c2ccc(-c3ccc4occc4c3)cc2)C1 (stereo not drawn) [compound 904, methyl 3-((2-(4-(benzofuran-5-yl)phenyl)-4-oxo-7-oxa-1,3-diazaspiro[4.4]non-1-en-3-yl)methyl)azetidin-1-carboxylate] | -24 | > 10 |  |  |
| COC(=O)N1CC(CN2C(=O)C3(CCOC3)N=C2c2ccc(-c3ccc4c(cnn4C)c3)cc2)C1 (stereo not drawn) [compound 905, methyl 3-((2-(4-(1-methyl-1H-indazol-5-yl)phenyl)-4-oxo-7-oxa-1,3-diazaspiro[4.4]non-1-en-3-yl)methyl)azetidine-1-carboxylate] | -7 | > 10 |  |  |
